Results from BindingDB's records for patent US11485738 (MIRATI THERAPEUTICS, INC., 2022).

Biological target: Histone-binding protein RBBP4/Polycomb protein EED/Polycomb protein SUZ12/Zinc finger protein AEBP2 (Human, UniProt O75530+Q09028+Q15022+Q6ZN18)
Assay: Enzymatic Activity Assay
Experimental: An aliquot of each serial dilution of test compound was added to deep 384 well plate using Acoustic Technology instrument (Echo 550, LabCyte) containing reaction buffer (50 mM Tris-HCl (pH 8), 0.01% Brij35, 1 mM EDTA, 1 mM DTT, 1 mM PMSF and 1% DMSO), 10 nM purified PRC2 complex and 0.05 mg/ml core histone H3 in a 5 μl volume. The reaction was mixed gently and then pre-incubated for 20 min at 30° C. The enzymatic reaction was initiated by adding 1 uM S-Adenosyl-L-[methyl-3H]methionine and incubated for 1 hr at 30° C. After 1 hr, the reaction product was detected using a filter binding method and the amount of tritiated H3 core histone was quantitated using a scintillation counter.

Histone-binding protein RBBP4/Polycomb protein EED/Polycomb protein SUZ12/Zinc finger protein AEBP2, sequence (O75530 whole entry): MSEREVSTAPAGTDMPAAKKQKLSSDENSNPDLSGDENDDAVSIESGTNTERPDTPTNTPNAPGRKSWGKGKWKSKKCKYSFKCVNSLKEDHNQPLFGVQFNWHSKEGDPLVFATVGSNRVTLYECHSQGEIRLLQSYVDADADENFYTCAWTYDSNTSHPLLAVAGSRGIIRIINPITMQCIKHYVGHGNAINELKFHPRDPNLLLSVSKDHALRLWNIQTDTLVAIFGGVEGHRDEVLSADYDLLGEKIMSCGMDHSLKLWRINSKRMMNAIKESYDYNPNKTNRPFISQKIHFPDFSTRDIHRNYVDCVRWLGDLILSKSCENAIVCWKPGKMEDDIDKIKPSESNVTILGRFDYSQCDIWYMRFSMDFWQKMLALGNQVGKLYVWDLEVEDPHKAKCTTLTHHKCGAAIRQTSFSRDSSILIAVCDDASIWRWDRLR
Histone-binding protein RBBP4/Polycomb protein EED/Polycomb protein SUZ12/Zinc finger protein AEBP2, sequence (Q15022 whole entry): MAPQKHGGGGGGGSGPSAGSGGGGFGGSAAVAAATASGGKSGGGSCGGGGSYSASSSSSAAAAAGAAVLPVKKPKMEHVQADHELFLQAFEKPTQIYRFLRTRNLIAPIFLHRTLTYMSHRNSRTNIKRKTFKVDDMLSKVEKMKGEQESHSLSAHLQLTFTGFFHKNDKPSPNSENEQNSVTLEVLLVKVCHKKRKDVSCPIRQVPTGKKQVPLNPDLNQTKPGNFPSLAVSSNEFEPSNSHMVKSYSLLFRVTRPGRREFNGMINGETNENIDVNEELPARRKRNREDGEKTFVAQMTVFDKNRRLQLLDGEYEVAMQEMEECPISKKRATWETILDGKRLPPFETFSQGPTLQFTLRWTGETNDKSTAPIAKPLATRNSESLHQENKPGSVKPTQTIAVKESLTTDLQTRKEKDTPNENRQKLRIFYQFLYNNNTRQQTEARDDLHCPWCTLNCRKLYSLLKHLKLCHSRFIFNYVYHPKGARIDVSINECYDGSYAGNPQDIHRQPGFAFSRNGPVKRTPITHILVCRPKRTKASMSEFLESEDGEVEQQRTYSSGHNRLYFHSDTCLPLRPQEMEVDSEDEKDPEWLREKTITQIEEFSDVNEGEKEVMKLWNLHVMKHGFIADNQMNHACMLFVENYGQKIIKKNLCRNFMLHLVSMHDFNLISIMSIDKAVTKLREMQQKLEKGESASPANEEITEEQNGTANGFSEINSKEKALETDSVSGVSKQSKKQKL
Histone-binding protein RBBP4/Polycomb protein EED/Polycomb protein SUZ12/Zinc finger protein AEBP2, sequence (Q6ZN18 whole entry): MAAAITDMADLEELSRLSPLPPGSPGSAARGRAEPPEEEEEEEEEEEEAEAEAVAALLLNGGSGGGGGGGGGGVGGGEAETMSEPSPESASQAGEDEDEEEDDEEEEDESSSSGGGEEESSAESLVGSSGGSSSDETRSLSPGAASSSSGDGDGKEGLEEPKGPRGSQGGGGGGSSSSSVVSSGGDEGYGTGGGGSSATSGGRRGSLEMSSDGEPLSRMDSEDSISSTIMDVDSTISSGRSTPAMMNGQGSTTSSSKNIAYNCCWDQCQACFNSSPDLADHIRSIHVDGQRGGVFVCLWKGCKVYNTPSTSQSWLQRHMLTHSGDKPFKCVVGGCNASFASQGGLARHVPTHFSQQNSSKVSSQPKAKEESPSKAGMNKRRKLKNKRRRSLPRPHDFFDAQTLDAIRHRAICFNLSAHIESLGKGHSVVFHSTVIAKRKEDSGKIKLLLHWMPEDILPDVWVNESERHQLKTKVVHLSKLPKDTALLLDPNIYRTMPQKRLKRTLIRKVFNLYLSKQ
Histone-binding protein RBBP4/Polycomb protein EED/Polycomb protein SUZ12/Zinc finger protein AEBP2, sequence (Q09028 whole entry): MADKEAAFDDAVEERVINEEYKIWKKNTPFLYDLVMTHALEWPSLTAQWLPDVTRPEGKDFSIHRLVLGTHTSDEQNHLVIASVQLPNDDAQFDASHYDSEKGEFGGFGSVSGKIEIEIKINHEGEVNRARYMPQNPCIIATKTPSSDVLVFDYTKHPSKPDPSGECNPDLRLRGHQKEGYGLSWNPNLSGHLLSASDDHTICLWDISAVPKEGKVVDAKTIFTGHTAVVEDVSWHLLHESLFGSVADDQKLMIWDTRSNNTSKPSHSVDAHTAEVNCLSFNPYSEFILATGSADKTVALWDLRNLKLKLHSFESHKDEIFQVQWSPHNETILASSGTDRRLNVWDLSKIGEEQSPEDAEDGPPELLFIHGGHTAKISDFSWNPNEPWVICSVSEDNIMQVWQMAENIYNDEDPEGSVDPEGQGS

Q: `Cc1nc(N2CCOCC2)ccc1-c1cnc(NCc2c(F)ccc3c2CCO3)n2cc(C#N)nc12` [US11485738, Example 56] was tested. Which IC50 did it give?
A: < 100 nM

Q: With `Cc1cc(S(C)(=O)=O)ccc1-c1cnc(NCc2c(F)ccc3c2CCO3)n2cc(C#N)nc12` [US11485738, Example 87] as the molecule, how does the IC50 read?
A: < 100 nM
